Test results taken from the Kinase Knowledgebase extract (Sharma et al. 2016).

Experiments:
EGFR (human) = EGFR (human) (UniProt P00533)
[1] = target: EGFR (human), P00533 [L858R]
[2] = target: EGFR (Human), P00533 [T790M/L858R]
[3] = target: EGFR (Human), P00533 [Assessment of EGFR-Del T790M Dependent Cell Proliferation in BaF3 Cells]
[4] = target: EGFR (Human), P00533 [T790M/L858R]; settings: baf3

EGFR (Human), P00533 [T790M/L858R], sequence (P00533 whole entry T790M/L858R, looked up): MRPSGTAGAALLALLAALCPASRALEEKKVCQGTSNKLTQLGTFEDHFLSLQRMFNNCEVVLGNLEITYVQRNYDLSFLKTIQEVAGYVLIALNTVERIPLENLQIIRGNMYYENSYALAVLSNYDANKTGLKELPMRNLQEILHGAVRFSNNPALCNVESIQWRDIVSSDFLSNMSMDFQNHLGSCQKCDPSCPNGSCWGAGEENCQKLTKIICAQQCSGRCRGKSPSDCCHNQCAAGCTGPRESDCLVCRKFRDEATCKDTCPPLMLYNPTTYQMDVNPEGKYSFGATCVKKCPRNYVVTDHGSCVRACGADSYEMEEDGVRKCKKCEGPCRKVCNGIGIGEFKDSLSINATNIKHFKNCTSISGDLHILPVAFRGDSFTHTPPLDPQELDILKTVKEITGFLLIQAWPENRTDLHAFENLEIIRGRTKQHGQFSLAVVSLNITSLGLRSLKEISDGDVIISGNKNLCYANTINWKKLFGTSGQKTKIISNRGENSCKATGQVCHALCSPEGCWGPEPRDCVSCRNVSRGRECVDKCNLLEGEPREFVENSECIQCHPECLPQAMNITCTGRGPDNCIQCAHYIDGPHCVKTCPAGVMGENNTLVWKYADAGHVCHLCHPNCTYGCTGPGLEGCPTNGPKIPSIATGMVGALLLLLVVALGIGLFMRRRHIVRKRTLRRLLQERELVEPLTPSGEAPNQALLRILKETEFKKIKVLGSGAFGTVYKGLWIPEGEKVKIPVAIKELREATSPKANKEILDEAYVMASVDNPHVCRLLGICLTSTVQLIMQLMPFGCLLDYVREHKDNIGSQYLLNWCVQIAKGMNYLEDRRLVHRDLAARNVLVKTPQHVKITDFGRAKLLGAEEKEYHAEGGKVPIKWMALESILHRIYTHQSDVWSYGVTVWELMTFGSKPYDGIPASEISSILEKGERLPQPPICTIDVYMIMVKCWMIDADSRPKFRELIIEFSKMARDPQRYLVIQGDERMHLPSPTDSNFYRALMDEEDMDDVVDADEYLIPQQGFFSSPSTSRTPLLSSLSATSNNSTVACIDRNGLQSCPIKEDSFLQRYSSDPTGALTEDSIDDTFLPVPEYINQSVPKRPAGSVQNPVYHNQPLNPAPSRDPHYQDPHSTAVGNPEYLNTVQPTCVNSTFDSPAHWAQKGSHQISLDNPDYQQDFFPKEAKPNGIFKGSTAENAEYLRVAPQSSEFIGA
EGFR (Human), P00533 [Assessment of EGFR-Del T790M Dependent Cell Proliferation in BaF3 Cells], sequence (P00533 whole entry, looked up, stated change not applied): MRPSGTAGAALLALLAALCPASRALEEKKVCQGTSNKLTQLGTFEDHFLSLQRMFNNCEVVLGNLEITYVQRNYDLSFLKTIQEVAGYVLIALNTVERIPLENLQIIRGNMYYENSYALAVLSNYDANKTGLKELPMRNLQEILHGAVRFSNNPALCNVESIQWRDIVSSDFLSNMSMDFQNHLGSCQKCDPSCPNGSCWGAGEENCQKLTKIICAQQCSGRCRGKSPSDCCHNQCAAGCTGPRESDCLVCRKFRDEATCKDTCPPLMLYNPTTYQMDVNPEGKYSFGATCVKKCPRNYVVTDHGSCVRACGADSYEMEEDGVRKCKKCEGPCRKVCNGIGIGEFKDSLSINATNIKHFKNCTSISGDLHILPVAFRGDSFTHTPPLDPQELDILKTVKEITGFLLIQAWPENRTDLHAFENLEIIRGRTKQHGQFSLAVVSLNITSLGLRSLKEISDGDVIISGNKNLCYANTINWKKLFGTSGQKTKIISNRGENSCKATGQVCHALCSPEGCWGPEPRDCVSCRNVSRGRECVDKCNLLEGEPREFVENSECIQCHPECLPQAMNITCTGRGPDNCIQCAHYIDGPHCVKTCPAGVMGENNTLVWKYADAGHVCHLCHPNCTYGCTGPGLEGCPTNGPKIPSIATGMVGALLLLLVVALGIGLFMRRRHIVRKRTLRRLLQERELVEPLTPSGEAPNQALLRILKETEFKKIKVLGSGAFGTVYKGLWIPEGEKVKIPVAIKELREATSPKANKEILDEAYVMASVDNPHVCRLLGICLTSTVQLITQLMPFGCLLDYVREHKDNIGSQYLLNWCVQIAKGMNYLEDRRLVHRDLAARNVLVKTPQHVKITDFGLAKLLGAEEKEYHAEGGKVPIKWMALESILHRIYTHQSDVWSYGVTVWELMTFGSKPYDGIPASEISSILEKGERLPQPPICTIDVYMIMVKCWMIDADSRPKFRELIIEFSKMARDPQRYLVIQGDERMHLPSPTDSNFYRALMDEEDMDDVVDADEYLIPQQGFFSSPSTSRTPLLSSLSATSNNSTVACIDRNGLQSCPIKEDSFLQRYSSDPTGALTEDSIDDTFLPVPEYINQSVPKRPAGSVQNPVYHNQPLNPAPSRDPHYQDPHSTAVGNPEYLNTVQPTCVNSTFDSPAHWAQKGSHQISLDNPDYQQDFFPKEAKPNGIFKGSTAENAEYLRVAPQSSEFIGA
EGFR (human), sequence (P00533 whole entry, looked up): as the sequence (P00533 whole entry, looked up, stated change not applied) above
EGFR (human), P00533 [L858R], sequence (P00533 whole entry L858R, looked up): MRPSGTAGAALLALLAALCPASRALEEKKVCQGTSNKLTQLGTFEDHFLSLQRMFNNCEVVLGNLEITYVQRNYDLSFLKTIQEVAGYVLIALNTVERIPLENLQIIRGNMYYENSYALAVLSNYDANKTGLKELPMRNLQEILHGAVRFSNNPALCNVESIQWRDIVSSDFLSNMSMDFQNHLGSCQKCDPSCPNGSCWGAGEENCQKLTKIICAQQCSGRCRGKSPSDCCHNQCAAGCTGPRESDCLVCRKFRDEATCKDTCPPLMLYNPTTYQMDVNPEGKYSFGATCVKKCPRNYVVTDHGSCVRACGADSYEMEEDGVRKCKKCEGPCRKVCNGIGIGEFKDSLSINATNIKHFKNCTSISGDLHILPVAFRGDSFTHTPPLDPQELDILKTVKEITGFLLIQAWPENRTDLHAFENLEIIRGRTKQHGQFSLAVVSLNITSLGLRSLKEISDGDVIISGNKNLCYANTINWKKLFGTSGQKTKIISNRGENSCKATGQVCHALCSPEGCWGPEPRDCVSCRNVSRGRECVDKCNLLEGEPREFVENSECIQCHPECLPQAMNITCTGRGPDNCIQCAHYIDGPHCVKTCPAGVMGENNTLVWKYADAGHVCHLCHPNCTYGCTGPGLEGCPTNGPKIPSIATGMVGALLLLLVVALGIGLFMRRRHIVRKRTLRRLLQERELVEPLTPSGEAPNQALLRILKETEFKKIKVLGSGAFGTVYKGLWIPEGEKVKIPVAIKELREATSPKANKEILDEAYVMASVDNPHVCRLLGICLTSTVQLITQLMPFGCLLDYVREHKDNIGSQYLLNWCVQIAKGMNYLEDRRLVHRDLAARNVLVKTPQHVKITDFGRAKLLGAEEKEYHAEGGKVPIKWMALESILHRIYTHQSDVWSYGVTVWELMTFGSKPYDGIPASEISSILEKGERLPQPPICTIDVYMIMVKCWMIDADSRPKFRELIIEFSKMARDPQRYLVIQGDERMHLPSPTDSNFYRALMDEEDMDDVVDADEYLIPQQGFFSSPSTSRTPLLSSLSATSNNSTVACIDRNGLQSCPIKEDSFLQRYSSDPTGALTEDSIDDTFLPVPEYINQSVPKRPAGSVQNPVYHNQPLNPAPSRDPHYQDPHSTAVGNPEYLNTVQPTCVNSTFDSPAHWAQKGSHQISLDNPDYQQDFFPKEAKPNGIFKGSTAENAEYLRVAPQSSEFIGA

IC50 (EGFR (human)) [µM] | IC50 [1] [µM] | IC50 [2] [µM] | IC50 [3] [µM] | IC50 [4] [µM] | Compound
< 0.05 | < 0.05 | < 0.05 | 0.05 to 0.1 | 0.101 to 0.25 | C=CC(=O)Nc1cc(Nc2ncc(Cl)c(Nc3ccccc3P(C)(C)=O)n2)c(OC)cc1N1CCN(C2CCN(C)CC2)CC1
< 0.05 | < 0.05 | < 0.05 | < 0.05 | < 0.05 | C=CC(=O)Nc1cc(Nc2ncc(Cl)c(Nc3ccccc3P(C)(C)=O)n2)c(OC)cc1N1CC(N2CCCC2)C1
< 0.05 | < 0.05 | < 0.05 | < 0.05 | < 0.05 | C=CC(=O)Nc1cc(Nc2ncc(Cl)c(Nc3ccccc3P(C)(C)=O)n2)c(OC)cc1N1CCCC(N(C)C)C1 (stereo not given)
< 0.05 | < 0.05 | < 0.05 | < 0.05 | < 0.05 | C=CC(=O)Nc1cc(Nc2ncc(Cl)c(Nc3ccccc3P(C)(C)=O)n2)c(OC)cc1N1CC[C@H](N(C)C)C1
< 0.05 | < 0.05 | < 0.05 | < 0.05 | < 0.05 | C=CC(=O)Nc1cc(Nc2ncc(Cl)c(Nc3ccccc3P(C)(C)=O)n2)c(OC)cc1N1CCC(N(C)C)C1 (stereo not given)
< 0.05 | < 0.05 | < 0.05 | < 0.05 | < 0.05 | C=CC(=O)Nc1cc(Nc2ncc(Cl)c(Nc3ccccc3P(C)(C)=O)n2)c(OC)cc1OC1CCCN(C)C1 (stereo not given)
< 0.05 | < 0.05 | < 0.05 | < 0.05 | < 0.05 | C=CC(=O)Nc1cc(Nc2ncc(Cl)c(Nc3ccccc3P(C)(C)=O)n2)c(OC)cc1N1CCCN(C)CC1
< 0.05 | < 0.05 | < 0.05 | < 0.05 | < 0.05 | C=CC(=O)Nc1cc(Nc2ncc(Cl)c(Nc3ccccc3P(C)(C)=O)n2)c(OC)cc1N1CCC(N2CCCC2)C1 (stereo not given)
< 0.05 | < 0.05 | < 0.05 | 0.05 to 0.1 | 0.101 to 0.25 | C=CC(=O)Nc1cc(Nc2ncc(Cl)c(Nc3ccccc3P(C)(C)=O)n2)c(OC)cc1N1CCC(O)C1 (stereo not given)
< 0.05 | < 0.05 | < 0.05 | < 0.05 | < 0.05 | C=CC(=O)Nc1cc(Nc2ncc(Cl)c(Nc3ccccc3P(C)(C)=O)n2)c(OC)cc1N1CC[C@@H](N(C)C)C1
< 0.05 | < 0.05 | < 0.05 | < 0.05 | < 0.05 | C=CC(=O)Nc1cc(Nc2ncc(Cl)c(Nc3ccccc3P(C)(C)=O)n2)c(OC)cc1OC1CCN(C)C1 (stereo not given)
< 0.05 | < 0.05 | < 0.05 | 0.05 to 0.1 | 0.101 to 0.25 | C=CC(=O)Nc1cc(Nc2ncc(Cl)c(Nc3ccccc3P(C)(C)=O)n2)c(OC)cc1N1CCC(N2CCCN(C)CC2)CC1
< 0.05 | < 0.05 | < 0.05 | < 0.05 | < 0.05 | C=CC(=O)Nc1cc(Nc2ncc(Cl)c(Nc3ccccc3P(C)(C)=O)n2)c(OC)cc1N1CCC(N2CCC2)C1 (stereo not given)
< 0.05 | < 0.05 | < 0.05 | < 0.05 | < 0.05 | C=CC(=O)Nc1cc(Nc2ncc(Cl)c(Nc3ccccc3P(C)(C)=O)n2)c(OC)cc1OCCN1CCCC1
< 0.05 | < 0.05 | < 0.05 | < 0.05 | 0.101 to 0.25 | C=CC(=O)Nc1cc(Nc2ncc(Cl)c(Nc3ccccc3P(C)(C)=O)n2)c(OC)cc1N1CCC(N(C)C)CC1
< 0.05 | < 0.05 | < 0.05 | < 0.05 | < 0.05 | C=CC(=O)Nc1cc(Nc2ncc(Cl)c(Nc3ccccc3P(C)(C)=O)n2)c(OC)cc1O[C@@H]1CCCN(C)C1

Continued, molecule first:

Compound | IC50 (EGFR (human)) [µM] | IC50 [1] [µM] | IC50 [2] [µM] | IC50 [3] [µM] | IC50 [4] [µM]
C=CC(=O)Nc1ccc(OC)c(Nc2ncc(Cl)c(Nc3ccc(OCCCN(C)C)cc3P(C)(C)=O)n2)c1 | < 0.05 | < 0.05 | < 0.05 | < 0.05 | < 0.05
C=CC(=O)Nc1cc(Nc2ncc(Cl)c(Nc3ccc(OCCN4CCCC4)cc3P(C)(C)=O)n2)c(OC)cc1F | < 0.05 | < 0.05 | < 0.05 | < 0.05 | < 0.05
C=CC(=O)Nc1cc(Nc2ncc(Cl)c(Nc3ccccc3P(C)(C)=O)n2)c(OC)cc1OCCN1CCOCC1 | < 0.05 | < 0.05 | < 0.05 | 0.05 to 0.1 | 0.101 to 0.25
C=C(CN1CCOCC1)C(=O)Nc1ccc(OC)c(Nc2ncc(Cl)c(Nc3ccccc3P(C)(C)=O)n2)c1 | < 0.05 | < 0.05 | < 0.05 | < 0.05 | < 0.05
C=CC(=O)Nc1cc(Nc2ncc(Cl)c(Nc3ccccc3P(C)(C)=O)n2)c(C)cc1C#CCN(C)C | < 0.05 | < 0.05 | < 0.05 | < 0.05 | < 0.05
C=CC(=O)Nc1cc(Nc2ncc(Cl)c(Nc3ccccc3P(C)(C)=O)n2)c(OC)cc1C#CCN(C(C)C)C(C)C | < 0.05 | < 0.05 | < 0.05 | < 0.05 | < 0.05
COc1cc(N2CCOCC2)c(NC(=O)C#CCCN2CCCCC2)cc1Nc1ncc(Cl)c(Nc2ccccc2P(C)(C)=O)n1 | < 0.05 | < 0.05 | < 0.05 | < 0.05 | < 0.05
C=CC(=O)Nc1cc(Nc2ncc(Cl)c(Nc3ccccc3P(C)(C)=O)n2)c(OC)cc1OC(COC)CN(C)C (stereo not given) | < 0.05 | < 0.05 | < 0.05 | < 0.05 | < 0.05
CC#CC(=O)Nc1cc(Nc2ncc(Cl)c(Nc3ccccc3P(C)(C)=O)n2)c(OC)cc1N1CCC(N2CCN(C)CC2)CC1 | 0.05 to 0.1 | < 0.05 | < 0.05 | < 0.05 | < 0.05
C=CC(=O)Nc1cc(Nc2ncc(Cl)c(Nc3ccccc3P(C)(C)=O)n2)c(C)cc1OC(COC)CN(C)C (stereo not given) | < 0.05 | < 0.05 | < 0.05 | < 0.05 | < 0.05
C=C(CN1CCC(O)C1)C(=O)Nc1ccc(OC)c(Nc2ncc(Cl)c(Nc3ccccc3P(C)(C)=O)n2)c1 (stereo not given) | < 0.05 | < 0.05 | < 0.05 | < 0.05 | < 0.05
COc1cc(F)c(NC(=O)C#CCCN2CCCCC2)cc1Nc1ncc(Cl)c(Nc2ccccc2P(C)(C)=O)n1 | < 0.05 | < 0.05 | < 0.05 | < 0.05 | < 0.05
C=C(CN1CCC(N2CCN(C)CC2)CC1)C(=O)Nc1ccc(OC)c(Nc2ncc(Cl)c(Nc3ccccc3P(C)(C)=O)n2)c1 | < 0.05 | < 0.05 | < 0.05 | < 0.05 | < 0.05
COCC#CC(=O)Nc1ccc(OC)c(Nc2ncc(Cl)c(Nc3ccccc3P(C)(C)=O)n2)c1 | < 0.05 | < 0.05 | < 0.05 | < 0.05 | < 0.05
CCOC(=O)/C=C/C(=O)Nc1ccc(OC)c(Nc2ncc(Cl)c(Nc3ccccc3P(C)(C)=O)n2)c1 | < 0.05 | < 0.05 | < 0.05 | < 0.05 | < 0.05
Cc1ccc(NC(=O)CCl)cc1Nc1ncc(Cl)c(Nc2ccccc2P(C)(C)=O)n1 | < 0.05 | < 0.05 | < 0.05 | < 0.05 | < 0.05
C=C(Cl)C(=O)Nc1ccc(OC)c(Nc2ncc(Cl)c(Nc3ccccc3P(C)(C)=O)n2)c1 | < 0.05 | < 0.05 | < 0.05 | < 0.05 | 0.101 to 0.25
C=CC(=O)Nc1cc(Nc2ncc(Cl)c(Nc3ccccc3P(C)(C)=O)n2)c(OC)cc1OCc1ccncc1 | < 0.05 | < 0.05 | < 0.05 | < 0.05 | 0.101 to 0.25
C=CC(=O)Nc1ccc(OC)c(Nc2ncc(Cl)c(Nc3ccc(OCCOC)cc3P(C)(C)=O)n2)c1 | 0.05 to 0.1 | < 0.05 | < 0.05 | < 0.05 | 0.05 to 0.1
C=CC(=O)Nc1ccc(OC(F)(F)F)c(Nc2ncc(Cl)c(Nc3ccccc3P(C)(C)=O)n2)c1 | < 0.05 | < 0.05 | < 0.05 | < 0.05 | < 0.05
COc1cc(N2CCOCC2)c(NC(=O)C#CCCN2CCN(C)CC2)cc1Nc1ncc(Cl)c(Nc2ccccc2P(C)(C)=O)n1 | < 0.05 | < 0.05 | < 0.05 | < 0.05 | < 0.05
C=CC(=O)Nc1cc(Nc2ncc(Cl)c(Nc3ccccc3P(C)(C)=O)n2)c(OC)cc1C#CCN(C)C1CCCC1 | < 0.05 | < 0.05 | < 0.05 | < 0.05 | < 0.05
COc1ccc(NC(=O)CCl)cc1Nc1ncc(Cl)c(Nc2ccccc2P(C)(C)=O)n1 | < 0.05 | < 0.05 | < 0.05 | < 0.05 | < 0.05
COCC#CC(=O)Nc1cc(Nc2ncc(Cl)c(Nc3ccccc3P(C)(C)=O)n2)c(OC)cc1N1CCOCC1 | < 0.05 | < 0.05 | < 0.05 | < 0.05 | < 0.05
C=CC(=O)Nc1cc(Nc2ncc(Cl)c(Nc3ccccc3P(C)(C)=O)n2)c(Cl)cc1OC(COC)CN(C)C (stereo not given) | < 0.05 | < 0.05 | < 0.05 | < 0.05 | < 0.05
C=CC(=O)Nc1ccc(OC)c(Nc2ncc(Cl)c(Nc3ccc(OCCN(C)C)cc3P(C)(C)=O)n2)c1 | < 0.05 | < 0.05 | < 0.05 | < 0.05 | < 0.05
C=CC(=O)Nc1cc(Nc2ncc(Cl)c(Nc3ccccc3P(C)(C)=O)n2)c(OC)cc1N1CCC(N(C)CCN(CC)CC)C1 (stereo not given) | < 0.05 | < 0.05 | < 0.05 | < 0.05 | 0.101 to 0.25
